One data set deals with T1, LPA5 (Homo sapiens, UniProt Q9H1C0).
T1 construct: expressed in transfected cells; host or cells: B103 rat neuroblastoma
Nature of the data set: Calcium-mobilization assay (FURA-2), LPA5 in B103 neuroblastoma cells. Format: cell-based. How it is done:
(§1) We investigated structure-activity relationships across species, LPAR subtypes and between Rx100 and two known process impurities encountered in manufacture: Rx103 (‘E’ isomer) and Rx200 (oleyl phosphate and impurity, which can be an Rx100 degradant along with oleyl alcohol). Rx100, Rx103, Rx200 and native LPA were investigated at different human LPAR subtypes. In addition, the activity of these compounds was evaluated at LPA2 receptors from the rhesus, rat and mouse species. Human LPA1/2/3 subtypes were transfected into mouse embryonic fibroblasts (MEF) or rat hepatoma cells (RH7777)—both of which are normally non-responsive or null to LPA. Human LPA4 was transfected into Chinese hamster ovary (CHO) cells and LPA5 into the B103 neuroblastoma cell line. […] The B103 rat neuroblastoma cell line is endogenously nonresponsive to LPA but expresses heterologous LPA5 receptors well. […] LPAR activation elicits a G-protein-mediated transient rise in intracellular calcium level that is proportional to the concentration of LPA applied. The intracellular calcium level was quantified by the calcium-selective fluorescent indicator FURA-2 (e.g., increased intracellular calcium surge=increased fluorescence).

Another data set concerns the target T2, Human LPA1 (Homo sapiens, UniProt Q92633).
T2 construct: expressed in transfected cells; host or cells: mouse embryonic fibroblasts (MEF)
Nature of the data set: Calcium-mobilization assay (FURA-2), human LPA1 transfected cells. The data set is classed as cell-based. As to conditions: for EC50: EC50 [nM], mean. How it is done:
as §1

Data set [1] addresses LPA2 receptors from the rat (Rattus norvegicus, UniProt A0ABK0LT65). Kind of data set: Calcium-mobilization assay (FURA-2), rat LPA2. The data set is classed as cell-based. How it is done: as §1
The next data set has as its system Sprague Dawley rats. Nature of the data set: 28-day repeat-dose subcutaneous toxicity and toxicokinetics in rats. Format: in vivo. From the text:
(§2) The remaining 5 rats per group in the control and high dose groups were then allowed a 14-day recovery period following treatment. Parameters evaluated included mortality (twice daily) clinical signs, food consumption (weekly), body weights (weekly), ophthalmoscopy (pre-dosing and prior to necropsy), hematology and clinical chemistry (Week 4), gross pathology, organ weights, and histopathology for all tissues in all dose groups. […] Ophthalmological examinations were unremarkable. […] Secondary changes included increased spleen weights and changes in other male reproductive organs. An increase in adrenal weights may have been related to a stress response. Macroscopic changes at necropsy included small testes (middle and high dose) and lesions apparent at the injection sites in some animals at all dose levels.
(§3) At recovery, only effects in male reproductive organs were evident at the highest dose, with skin lesions still evident in some animals at the highest dose. […] Cmax and AUC were generally higher at the end of the study compared to day 1. No gender differences were apparent.

Assay in data set [2]: as above
The data set is classed as in vivo, Sprague Dawley rats. The following applies: Sprague Dawley, rat, plasma, subcutaneous; day 27; lowest dose of 1.81 mg/kg/day.
From the text: as §2, §3

This note sets out measurements from patent US20170226139A1, “CRYSTALLINE SALTS OF (Z)-O-OCTADEC-9-EN-1-YL O,O-DIHYDROGEN PHOSPHOROTHIOATE” (priority 2013, published 2017).

A word on the EC50: it is the concentration giving half of the maximal effect. What is called Emax is the greatest response seen or fitted, relative to the assay's reference. As usually defined, the AUC is concentration integrated over time. Higher therefore signals more exposure.

Like-named read-outs stand apart in the source and are kept apart here.

T2 sequence (Q92633 whole entry): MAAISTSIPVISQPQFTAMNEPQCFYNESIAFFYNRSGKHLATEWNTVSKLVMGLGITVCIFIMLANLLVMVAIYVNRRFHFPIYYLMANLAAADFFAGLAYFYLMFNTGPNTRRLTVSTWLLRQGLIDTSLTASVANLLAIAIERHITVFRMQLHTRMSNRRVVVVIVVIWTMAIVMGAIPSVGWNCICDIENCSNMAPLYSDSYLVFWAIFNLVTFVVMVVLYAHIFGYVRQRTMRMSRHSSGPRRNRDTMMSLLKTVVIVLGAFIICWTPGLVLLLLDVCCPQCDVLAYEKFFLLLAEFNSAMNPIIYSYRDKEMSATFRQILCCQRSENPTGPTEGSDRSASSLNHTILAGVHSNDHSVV
T1 sequence (Q9H1C0 whole entry): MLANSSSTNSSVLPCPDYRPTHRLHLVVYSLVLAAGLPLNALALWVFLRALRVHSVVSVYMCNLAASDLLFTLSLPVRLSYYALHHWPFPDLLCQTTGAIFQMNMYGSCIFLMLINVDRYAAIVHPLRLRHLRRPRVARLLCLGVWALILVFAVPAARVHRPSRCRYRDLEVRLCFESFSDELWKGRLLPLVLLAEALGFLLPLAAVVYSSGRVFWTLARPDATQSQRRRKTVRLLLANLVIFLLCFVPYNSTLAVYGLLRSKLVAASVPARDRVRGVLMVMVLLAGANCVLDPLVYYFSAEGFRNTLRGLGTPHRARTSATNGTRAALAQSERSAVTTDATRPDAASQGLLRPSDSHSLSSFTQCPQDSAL
Sequence of LPA2 receptors from the rat (A0ABK0LT65 1-348): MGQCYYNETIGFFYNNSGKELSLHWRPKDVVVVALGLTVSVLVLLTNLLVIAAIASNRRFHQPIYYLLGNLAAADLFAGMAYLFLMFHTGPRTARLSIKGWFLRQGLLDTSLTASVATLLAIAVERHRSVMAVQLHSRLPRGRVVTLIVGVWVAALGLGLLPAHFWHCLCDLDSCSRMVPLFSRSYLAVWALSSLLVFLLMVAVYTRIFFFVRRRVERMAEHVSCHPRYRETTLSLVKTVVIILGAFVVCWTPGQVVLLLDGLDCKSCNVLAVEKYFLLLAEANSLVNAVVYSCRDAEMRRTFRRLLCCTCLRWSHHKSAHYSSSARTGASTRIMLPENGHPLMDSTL

Take `CCCCCCCC/C=C\CCCCCCCCOP(O)(O)=S` [Rx100, (Z)—O-octadec-9-en-1-yl O,O-dihydrogen phosphorothioate]: the EC50 on LPA5 came out at 100 nM; at Human LPA1 (LPA1 DKO MEF, human) it was 273 nM; on Human LPA1 (LPA1 RH7777, human) it was 1030 nM; in data set [1], 76 nM. Also, the Emax at LPA5 (B103, read-out: Emax (% of LPA)) is 104%; at Human LPA1 (RH7777, read-out: Emax (% of LPA)), 69%; on Human LPA1 (read-out: Emax (% of LPA)), 70%; in data set [1] (read-out: Emax (% of LPA)) it was 100%.
Regarding `CCCCCCCC/C=C\CCCCCCCCOP(O)(O)=S` [Rx100.L-Lysine, (Z)—O-octadec-9-en-1-yl O,O-dihydrogen phosphorothioate], the mortality entry with Sprague Dawley rats (28 days SC, 1.81, 6.33 and 18.1 (later 12.7) mg/kg/day) is given as “All animals survived the treatment period except for one high dose female”. In addition, the injection site lesions result in the data set on Sprague Dawley rats (28 days SC, dose relationship to incidence and severity) is “discoloration, scabbing, and swelling was observed in all treatment groups”. Moreover, the clinical chemistry changes result in the data set on Sprague Dawley rats (at >6.33 mg/kg) is “mildly lower albumin concentration and A/G ratio, higher globulin concentration and moderately higher triglycerides”. Moreover, the liver weights entry with Sprague Dawley rats (both genders) was “dose related increased liver weights in the middle and high dose groups”. Moreover, the body weight gains result with Sprague Dawley rats (high dose) is “reduced”. For the same compound, in the data set on Sprague Dawley rats (males), the NOAEL result was “could not be clearly established” and the testicular weights result was “dose related decreased testicular weights in all groups of males”. Also, the “hematology, red cell changes” value in the data set with Sprague Dawley rats (middle and high dose levels) is “lower red cell parameters and higher reticulocyte counts”. Besides, in the data set with Sprague Dawley rats (rat, in vivo), the coagulation studies result was “lower APPT in the females at the high dose and higher fibrinogen levels at all doses”; the “hematology, white cell parameters and platelets” value is “increased leukocyte, neutrophil, eosinophil and basophil counts and increased platelets”; the “histopathology, injection sites” value was “chronic mixed cell inflammation at all doses”; the “histopathology, liver” value is recorded as “dose related increased hepatocyte vacuolation at all doses”. Moreover, in the data set on Sprague Dawley rats (rat, in vivo), the “histopathology, testes” value is “degeneration and necrosis of the seminiferous tubules in all animals at the middle and high dose and in one animal at the low dose”; the ophthalmological examinations result is reported as “unremarkable”; the “toxicokinetics, plasma concentrations” value is recorded as “dose related increases in plasma concentrations”. Also, the liver enzymes entry in the data set on Sprague Dawley rats (some animals at 18.1/12.7 mg/kg) was “elevated liver enzymes”. This compound also registered an area under the curve (AUC) at 27 day in data set [2] of 5040 ng·h/mL.
